US8629132B2, “Kinase inhibitors” (Genosco, priority 2009, dated 2014)
Blank lines part the entries; values can stand above or below the molecule they belong to.

Tests used:
[1] = molecular target: T1, FAK (Homo sapiens, UniProt Q05397); test: Kinase inhibition assay: FAK; type: biochemical; settings: at 1 μM concentration
T1 construct: truncated human FAK, RET, FLT3, JAK2, and LRRK2; purchased Carna Biosciences
Procedure: (§1) Compounds of the present invention were tested for their capacity to inhibit a kinase panel which includes, but are not limited to, spleen tyrosine kinase (SYK), zeta-chain-associated protein kinase 70 (ZAP70), PTK2B protein tyrosine kinase 2 (PYK2), focal adhesion kinase (FAK), provirus integration of maloney kinase 1 (PIM1), rearranged during transfection kinase (RET), Fms-like tyrosine kinase 3 (FLT3), Janus kinase 2 (JAK2), and leucine-rich repeat kinase 2 (LRRK2).
(§2) Inhibition of SYK, ZAP70, PYK2, FAK, PIM1, RET, FLT3, JAK2 and LRRK2 Kinase Activity
(§3) Compounds of the invention were initially diluted to 10 mM in 100% DMSO (CALBIOCHEM™) for storage and made into kinase buffer solution to create a compound concentration ranging from 1 uM and 10 uM. Serial dilutions of compounds of the invention were dispensed into a 96-well plate (GREINER BIOSCIENCES™) at 6 μL each. Purified full-length human SYK, ZAP70, PIM1, PYK2 and truncated human FAK, RET, FLT3, JAK2, and LRRK2 (CARNA BIOSCIENCES™) were diluted in kinase buffer and added to the compound solutions and pre-incubated for 30 minutes at room temperature (1 hour for PYK2). […] The reaction mixture was incubated for 1 hour (2 hours for PYK2). Following the incubation, the stop solution made with EDTA, water, and Lance detection buffer ([…]™) was added (12μL each) to stop phosphorylation. […] The IC50 value of test compound was calculated at Gradpad Prism 5 unless specified otherwise.

[2] = molecular target: T2, PYK2 (Homo sapiens, UniProt Q14289); test: Kinase inhibition assay: PYK2; type: biochemical; settings: at 1 μM concentration
T2 construct: Purified full-length human SYK, ZAP70, PIM1, PYK2; purchased Carna Biosciences
Procedure: as §1, §2, §3

[3] = molecular target: T3, ZAP70 (Homo sapiens, UniProt P43403); test: Kinase inhibition assay: ZAP70; type: biochemical; settings: at 1 μM concentration
T3 construct: Purified full-length human SYK, ZAP70, PIM1, PYK2; purchased Carna Biosciences
T3 sequence (P43403 1-619): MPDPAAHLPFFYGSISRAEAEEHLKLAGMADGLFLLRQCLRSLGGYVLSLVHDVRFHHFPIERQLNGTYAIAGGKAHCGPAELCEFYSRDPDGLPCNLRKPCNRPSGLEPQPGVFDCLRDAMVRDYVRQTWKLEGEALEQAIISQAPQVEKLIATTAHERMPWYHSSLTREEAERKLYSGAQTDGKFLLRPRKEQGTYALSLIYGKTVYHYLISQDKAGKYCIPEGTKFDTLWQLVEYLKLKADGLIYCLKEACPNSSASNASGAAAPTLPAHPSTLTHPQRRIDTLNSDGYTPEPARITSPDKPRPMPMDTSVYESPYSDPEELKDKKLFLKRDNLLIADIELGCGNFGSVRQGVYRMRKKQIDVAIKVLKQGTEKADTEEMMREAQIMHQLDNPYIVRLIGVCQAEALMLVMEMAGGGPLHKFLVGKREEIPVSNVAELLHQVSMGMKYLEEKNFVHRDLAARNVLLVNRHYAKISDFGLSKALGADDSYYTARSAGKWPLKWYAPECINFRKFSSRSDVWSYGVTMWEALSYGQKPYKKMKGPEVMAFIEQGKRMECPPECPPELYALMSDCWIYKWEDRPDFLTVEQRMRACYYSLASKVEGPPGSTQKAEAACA
Procedure: as §1, §2, §3

[4] = molecular target: T4, SYK (Homo sapiens, UniProt P43405); test: Kinase inhibition assay: SYK; type: biochemical; settings: at 1 μM concentration
T4 construct: Purified full-length human SYK, ZAP70, PIM1, PYK2; purchased Carna Biosciences
Procedure: as §1, §2, §3

[5] = molecular target: JAK2 (Homo sapiens, UniProt O60674); test: Kinase inhibition assay: JAK2; type: biochemical; set-up: truncated human FAK, RET, FLT3, JAK2, and LRRK2; purchased Carna Biosciences
Procedure: as §1, §2, §3

[6] = system: HEL cells; test: Cell viability assay: JAK2 inhibition; type: cell-based, human; settings: for IC50: Homo sapiens, 72-hour incubation, HEL cells expressing JAK2 V617F, read-out: Cell Viability: JAK2 kinase Inhibition HEL (IC50 nM)
Procedure: Compounds of the invention are tested for their effects on JAK2 inhibition in human erythroleukemic cell line (HEL) to illustrate potential efficacy at the cellular level. The Janus-associated kinase (JAK) family, comprised of four different protein tyrosine kinases JAK1, JAK2, JAK3, and TYK2, plays an important role in cellular survival, proliferation, and differentiation. V617F, a unique mutation in the JAK2 gene (a valine-to-phenylalanine substitution) results in constitutive kinase activity and promotes deregulated hematopoiesis. JAK2 V617F is frequently detected in myeloproliferative disorders (MPDs), a group of clonal hematopoietic stem cell disorders that include polycythemia vera (PV), essential thrombocythemia (ET), and idiopathic myelofibrosis (IMF), all of which have the potential to transform to acute myeloid leukemia. JAK2 V617F is constitutively phosphorylated and able to activate downstream signaling in the absence of cytokine stimulation.
Compounds of the present invention were tested for their effects on viability of HEL cells. For cell viability assay, HEL cells expressing human JAK2 V617F were obtained from the American Type Culture Collection (ATCC, Manassas, Va.). This cell line was maintained with Roswell Park Memorial Institute (RPMI) medium (HyClone™) containing 10 bovine calf serum (BCS; Hyclone™) supplemented iron. The HEL cells were seeded at 2×10^4 cells in 96 well culture plates, and serially diluted compound was then added. After a 72-hour incubation period at 37° C., viability of cells was measured using the ATPLite 1 step assay (Perkin-Elmer™) that is based on the quantification of ATP from viable cells. CellTiter Aqueous assay (Promega™) was also performed in parallel as an orthogonal assay. IC50 values were calculated using nonlinear regression and defined as the concentration needed for a 50 reduction in luminescence or absorbance treated versus untreated control cells (Prism™ Software).

[7] = molecular target: T5, FLT3 (Homo sapiens, UniProt P36888); test: Kinase inhibition assay: FLT3; type: biochemical
T5 construct: truncated human FAK, RET, FLT3, JAK2, and LRRK2; purchased Carna Biosciences
T5 sequence (P36888 564-993 limits assumed): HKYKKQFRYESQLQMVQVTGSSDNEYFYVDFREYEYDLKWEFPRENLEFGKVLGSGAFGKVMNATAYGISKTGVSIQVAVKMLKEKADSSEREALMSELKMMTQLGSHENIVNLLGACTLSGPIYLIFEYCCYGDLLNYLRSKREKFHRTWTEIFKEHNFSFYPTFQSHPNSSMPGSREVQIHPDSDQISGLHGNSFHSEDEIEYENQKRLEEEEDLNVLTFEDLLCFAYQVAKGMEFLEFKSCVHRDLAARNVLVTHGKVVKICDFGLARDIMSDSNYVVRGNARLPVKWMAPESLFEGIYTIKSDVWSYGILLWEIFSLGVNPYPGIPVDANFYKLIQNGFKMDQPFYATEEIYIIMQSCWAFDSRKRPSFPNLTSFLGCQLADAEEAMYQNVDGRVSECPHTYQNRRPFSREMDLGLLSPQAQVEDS
Procedure: as §1, §2, §3

[8] = molecular target: T6, RET (Homo sapiens, UniProt P07949); test: Kinase inhibition assay: RET; type: biochemical
T6 construct: truncated human FAK, RET, FLT3, JAK2, and LRRK2; purchased Carna Biosciences
T6 sequence (P07949 658-1114 limits assumed): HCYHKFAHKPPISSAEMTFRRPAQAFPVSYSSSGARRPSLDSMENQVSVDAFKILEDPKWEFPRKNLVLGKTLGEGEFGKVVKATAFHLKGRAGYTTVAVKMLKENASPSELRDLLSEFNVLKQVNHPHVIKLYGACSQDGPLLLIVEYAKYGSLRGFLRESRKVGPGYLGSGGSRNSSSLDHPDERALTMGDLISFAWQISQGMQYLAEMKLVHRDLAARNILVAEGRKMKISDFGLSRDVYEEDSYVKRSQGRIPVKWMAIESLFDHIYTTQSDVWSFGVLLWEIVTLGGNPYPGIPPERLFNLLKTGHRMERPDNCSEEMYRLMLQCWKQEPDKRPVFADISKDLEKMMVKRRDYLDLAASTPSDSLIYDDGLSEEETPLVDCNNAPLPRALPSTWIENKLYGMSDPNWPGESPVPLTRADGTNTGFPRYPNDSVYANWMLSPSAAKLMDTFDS
Procedure: as §1, §2, §3

[9] = molecular target: T7, LRRK2 (Homo sapiens, UniProt Q5S007); test: Kinase inhibition assay: LRRK2; type: biochemical; settings: for inhibition at 1 µM: at 1 μM concentration
T7 construct: truncated human FAK, RET, FLT3, JAK2, and LRRK2; purchased Carna Biosciences
Procedure: as §1, §2, §3

[10] = system: MV4-11 cells; test: Cell viability assay: FLT3-ITD-positive cells; type: cell-based, human; settings: for IC50: Homo sapiens, MV4-11, 72-hour incubation, read-out: Viability of FLT3-ITD Induced Cancer Cell Line MV-4-11 (IC50 nM)
Procedure: Compounds of the invention were tested for their effects on inhibition of FLT3-ITD in human acute leukemia cell line (MV4-11). FLT3 is primarily expressed in immature hematopoietic progenitor as well as in mature myeloid cells. It belongs to type III receptor tyrosine kinase (RTK) family including KIT, FMS, and PDGFR. It is activated by binding to FL, which leads to increased kinase activity and activation of downstream signaling pathway including STATS, Ras, and PI3Kinase.
Compounds of the invention were tested for cell viability effect on MV4-11 cells. For cell viability assay, MV4-11 cells expressing human FLT3-ITD were obtained from the American Type Culture Collection (ATCC, Manassas, Va.). This cell line was maintained with an Roswell Park Memorial Institute (RPMI) medium (HyClone™) containing 10 bovine calf serum (BCS; Hyclone™) supplemented iron. The MV4-11 cells were seeded at 2×10^4 cells in 96-well culture plates, and serially diluted compound was then added. After a 72-hour incubation period at 37° C., cell viability was measured using the ATPLite 1 step assay (Perkin-Elmer™) that is based on the quantification of ATP from viable cells. CellTiter Aqueous assay (Promega™) was also performed in parallel as an orthogonal assay. IC50 values were calculated using nonlinear regression and defined as the concentration needed for a 50 reduction in luminescence or absorbance treated versus untreated control cells (Prism™ Software).

Sequence of JAK2 (O60674 826-1132 limits assumed): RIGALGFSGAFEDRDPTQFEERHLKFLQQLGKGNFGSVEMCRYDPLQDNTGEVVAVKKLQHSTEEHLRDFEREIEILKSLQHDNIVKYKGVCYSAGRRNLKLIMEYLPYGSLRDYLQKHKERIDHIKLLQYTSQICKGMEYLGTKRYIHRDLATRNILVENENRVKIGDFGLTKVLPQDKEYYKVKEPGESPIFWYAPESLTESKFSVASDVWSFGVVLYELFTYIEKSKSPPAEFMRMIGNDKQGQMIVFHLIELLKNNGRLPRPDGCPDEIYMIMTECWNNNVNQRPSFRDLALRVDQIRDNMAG
T7 sequence (Q5S007 970-2527 limits assumed): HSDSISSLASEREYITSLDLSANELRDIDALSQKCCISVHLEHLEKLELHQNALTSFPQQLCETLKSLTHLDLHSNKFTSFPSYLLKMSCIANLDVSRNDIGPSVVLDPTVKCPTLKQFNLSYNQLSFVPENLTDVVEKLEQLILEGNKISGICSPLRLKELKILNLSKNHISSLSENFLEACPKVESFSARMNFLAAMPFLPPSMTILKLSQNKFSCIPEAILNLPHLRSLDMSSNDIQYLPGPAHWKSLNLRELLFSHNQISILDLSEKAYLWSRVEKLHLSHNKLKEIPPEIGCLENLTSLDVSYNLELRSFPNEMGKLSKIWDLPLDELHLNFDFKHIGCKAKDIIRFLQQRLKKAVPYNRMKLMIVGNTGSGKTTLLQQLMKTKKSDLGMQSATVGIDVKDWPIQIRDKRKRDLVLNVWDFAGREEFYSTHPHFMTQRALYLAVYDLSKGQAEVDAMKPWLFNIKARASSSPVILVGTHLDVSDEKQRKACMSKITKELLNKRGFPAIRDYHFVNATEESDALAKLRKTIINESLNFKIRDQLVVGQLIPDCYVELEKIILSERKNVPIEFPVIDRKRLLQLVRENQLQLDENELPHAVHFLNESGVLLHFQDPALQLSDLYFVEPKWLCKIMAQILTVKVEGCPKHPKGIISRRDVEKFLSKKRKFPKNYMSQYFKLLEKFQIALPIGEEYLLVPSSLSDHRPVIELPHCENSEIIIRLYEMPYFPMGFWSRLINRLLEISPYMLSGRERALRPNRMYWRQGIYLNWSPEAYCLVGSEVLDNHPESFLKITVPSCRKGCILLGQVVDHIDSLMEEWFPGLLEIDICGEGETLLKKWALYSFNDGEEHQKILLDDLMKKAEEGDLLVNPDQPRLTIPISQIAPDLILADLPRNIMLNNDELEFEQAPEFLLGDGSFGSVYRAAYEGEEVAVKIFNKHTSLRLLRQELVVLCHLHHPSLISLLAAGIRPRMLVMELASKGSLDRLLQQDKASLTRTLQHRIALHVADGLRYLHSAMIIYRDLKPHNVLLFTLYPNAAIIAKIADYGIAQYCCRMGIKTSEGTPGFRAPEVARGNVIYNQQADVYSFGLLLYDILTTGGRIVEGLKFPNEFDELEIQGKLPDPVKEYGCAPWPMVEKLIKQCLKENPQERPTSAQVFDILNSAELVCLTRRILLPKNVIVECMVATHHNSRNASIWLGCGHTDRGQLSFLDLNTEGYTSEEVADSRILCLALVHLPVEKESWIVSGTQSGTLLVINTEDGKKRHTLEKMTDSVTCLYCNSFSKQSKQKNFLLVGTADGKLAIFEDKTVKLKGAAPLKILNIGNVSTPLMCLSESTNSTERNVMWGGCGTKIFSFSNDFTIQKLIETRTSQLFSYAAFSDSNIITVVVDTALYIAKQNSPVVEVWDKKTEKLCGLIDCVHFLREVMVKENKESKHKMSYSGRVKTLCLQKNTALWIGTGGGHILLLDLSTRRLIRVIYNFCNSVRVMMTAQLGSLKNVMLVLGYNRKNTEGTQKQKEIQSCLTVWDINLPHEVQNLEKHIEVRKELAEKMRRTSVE
T1 sequence (Q05397 376-1052 limits assumed): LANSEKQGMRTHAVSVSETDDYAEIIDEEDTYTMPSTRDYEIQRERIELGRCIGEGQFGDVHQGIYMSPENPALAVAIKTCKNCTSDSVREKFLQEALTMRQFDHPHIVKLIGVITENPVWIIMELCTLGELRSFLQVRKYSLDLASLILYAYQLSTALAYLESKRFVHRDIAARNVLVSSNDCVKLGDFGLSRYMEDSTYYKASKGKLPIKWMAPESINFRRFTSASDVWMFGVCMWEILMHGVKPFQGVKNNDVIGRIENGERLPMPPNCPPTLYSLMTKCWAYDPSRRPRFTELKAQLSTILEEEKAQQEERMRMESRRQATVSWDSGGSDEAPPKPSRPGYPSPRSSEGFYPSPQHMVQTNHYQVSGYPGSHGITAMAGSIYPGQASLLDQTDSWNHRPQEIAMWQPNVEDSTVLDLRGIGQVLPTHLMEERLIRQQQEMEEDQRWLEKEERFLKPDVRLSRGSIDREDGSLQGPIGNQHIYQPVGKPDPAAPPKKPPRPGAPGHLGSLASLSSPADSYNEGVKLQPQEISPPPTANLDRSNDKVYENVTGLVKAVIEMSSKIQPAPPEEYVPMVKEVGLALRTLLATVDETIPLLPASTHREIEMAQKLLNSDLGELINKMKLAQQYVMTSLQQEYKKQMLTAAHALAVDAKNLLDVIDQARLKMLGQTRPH
T2 sequence (Q14289 whole entry): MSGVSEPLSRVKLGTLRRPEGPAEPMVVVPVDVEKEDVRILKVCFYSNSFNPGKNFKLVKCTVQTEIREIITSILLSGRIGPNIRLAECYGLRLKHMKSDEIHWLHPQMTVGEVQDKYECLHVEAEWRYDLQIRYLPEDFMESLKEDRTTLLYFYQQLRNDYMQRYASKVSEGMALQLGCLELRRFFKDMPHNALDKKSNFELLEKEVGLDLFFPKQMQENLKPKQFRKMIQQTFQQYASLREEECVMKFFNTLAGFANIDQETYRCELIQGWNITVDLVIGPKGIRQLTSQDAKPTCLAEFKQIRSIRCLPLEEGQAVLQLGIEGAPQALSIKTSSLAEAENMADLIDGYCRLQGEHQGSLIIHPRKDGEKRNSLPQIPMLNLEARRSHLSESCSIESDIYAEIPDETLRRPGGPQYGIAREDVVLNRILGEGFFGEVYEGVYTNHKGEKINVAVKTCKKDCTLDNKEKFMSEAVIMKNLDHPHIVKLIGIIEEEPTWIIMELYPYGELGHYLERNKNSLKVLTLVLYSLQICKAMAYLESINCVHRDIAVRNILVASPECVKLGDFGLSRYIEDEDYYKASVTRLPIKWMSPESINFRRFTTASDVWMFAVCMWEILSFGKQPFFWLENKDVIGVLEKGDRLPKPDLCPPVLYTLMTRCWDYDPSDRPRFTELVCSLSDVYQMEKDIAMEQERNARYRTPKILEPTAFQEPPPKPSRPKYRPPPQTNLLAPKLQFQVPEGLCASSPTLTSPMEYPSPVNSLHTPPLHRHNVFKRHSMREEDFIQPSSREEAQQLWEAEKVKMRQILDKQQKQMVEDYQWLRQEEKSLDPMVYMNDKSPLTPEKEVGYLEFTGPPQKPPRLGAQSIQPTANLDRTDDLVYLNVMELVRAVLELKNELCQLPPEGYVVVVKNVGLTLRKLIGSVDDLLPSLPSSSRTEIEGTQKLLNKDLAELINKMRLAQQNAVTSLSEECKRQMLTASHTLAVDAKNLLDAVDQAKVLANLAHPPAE

- inhibition at 1 µM [9]: 31.4%
- inhibition at 1 µM ([7]; at 1 μM concentration): 53%
- inhibition at 1 µM ([8]; at 1 μM concentration): 42%
Compound: Cc1cc(C)cc(Nc2nccc(-n3cc(C(=O)N(C)CCO)c(C)n3)n2)c1 [Compound 29, 1-(2-(3,5-dimethylphenylamino)pyrimidin-4-yl)-N-(2-hydroxyethyl)-N,3-dimethyl-1H-pyrazole-4-carboxamide]

- inhibition at 1 µM ([5]; at 1 μM concentration): 40%
- inhibition at 1 µM [9]: 44.3%
- IC50 [8]: 51.3 nM
Compound: Cc1cc(C)cc(Nc2nccc(-n3cc(C(=O)N4CC[C@@H](O)C4)c(C)n3)n2)c1 [Compound 32, (R)-(1-(2-(3,5-dimethylphenylamino)pyrimidin-4-yl)-3-methyl-1H-pyrazol-4-yl)(3-hydroxypyrrolidin-1-yl)methanone]

- inhibition at 1 µM [1]: 13.9%
- inhibition at 1 µM [2]: 30.7%
- inhibition at 1 µM [4]: 99.3%
Compound: Cc1cc(C)cc(Nc2nccc(-n3cc(C)c(CN4CC[C@@H](O)C4)c3)n2)c1 [Compound 41, (R)-1-((1-(2-(3,5-dimethylphenylamino)pyrimidin-4-yl)-4-methyl-1H-pyrrol-3-yl)methyl)pyrrolidin-3-ol]

- IC50 [10]: 1.5 nM
- IC50 [5]: 36.5 nM
- IC50 [9]: 424 nM
- IC50 [7]: 0.4 nM
- IC50 [8]: 5.2 nM
Compound: COc1cc(Nc2ncc(C)c(-n3cc(C)c(CN4CC(O)C4)c3)n2)cc(OC)c1OC [Compound 91, 1-((4-methyl-1-(5-methyl-2-(3,4,5-trimethoxyphenylamino)pyrimidin-4-yl)-1H-pyrrol-3-yl)methyl)azetidin-3-ol]
- inhibition level compared with Vandetinib and Sunitinib ([10]; FLT3 ITD induced cancer cell line (MV4-11)): greater than those exhibited by Vandetinib and Sunitinib

- IC50 [10]: 79.2 nM
- IC50 [5]: 65.1 nM
- IC50 [7]: 3.6 nM
- IC50 [8]: 35.8 nM
Compound: COc1cc(Nc2ncc(C)c(-n3cc(C)c(CN4CCCN(C(=O)C(C)(C)C)CC4)c3)n2)cc(OC)c1OC [Compound 97, 2,2-dimethyl-1-(4-((4-methyl-1-(5-methyl-2-(3,4,5-trimethoxyphenylamino)pyrimidin-4-yl)-1H-pyrrol-3-yl)methyl)-1,4-diazepan-1-yl)propan-1-one]

Further lines, the molecule ahead of its results:

Compound: COc1cc(Nc2ncc(F)c(-n3cc(C)c(CO)c3)n2)cc(OC)c1 [Compound 16, (1-(2-(3,5-dimethoxy-phenylamino)-5-fluoro-pyrimidin-4-yl)-4-methyl-1H-pyrrol-3-yl)methanol]
- inhibition at 1 µM [1]: 34.1%
- inhibition at 1 µM [2]: 84.9%
- inhibition at 1 µM [3]: 31.9%
- inhibition at 1 µM [4]: 80.7%

Compound: Cc1cn(-c2nc(Nc3ccc(N4CC[C@H](O)C4)c(C)c3)ncc2C)cc1CO [Compound 24, (S)-1-(4-(4-(3-(hydroxyl-methyl)-4-methyl-1H-pyrrol-1-yl)-5-methyl-pyrimidin-2-ylamino)-2-methylphenyl)pyrrolidin-3-ol]
- IC50 [5]: 1.6 nM
- inhibition level compared with Sorafenib ([6]; HEL): greater than those exhibited by Sorafenib
- IC50 [6]: 229 nM
- IC50 [7]: 6.8 nM
- IC50 [8]: 40.4 nM

Compound: CNC(=O)c1cc(Oc2ccc(NC(=O)Nc3ccc(Cl)c(C(F)(F)F)c3)cc2)ccn1 [Sorafenib, reference compound]
- IC50 [6]: > 1000 nM
